Experimental data: the supplement of paper PMC10307832

Tests used:
Experiment in all cases: relative viability (nuclei count vs DMSO), 5 days (fraction); higher = more cells survive
[1] = compound: C#Cc1cccc(Nc2ncnc3cc(OCCOC)c(OCCOC)cc23)c1 [Erlotinib] + CC(C)C[C@H](NC(=O)[C@H](Cc1ccccc1)NC(=O)c1cnccn1)B(O)O [Bortezomib] (partner 0.002 µM)
Outline: (§1)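 The day after seeding in 1536-well plates, lung cancer cell lines were treated by pin tool with a single drug, or with a fixed anchor-drug dose together with five library-drug doses (not always all listed) in √10 steps. After 5 days, a combined fix-and-stain solution (final 0.05% Triton X-100, 1% formaldehyde, 1 ug/ml Hoechst) was added. Nuclei counted on 4× images gave relative viability as treated counts over vehicle counts, reported as the median of duplicate plates.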

[2] = compound: C#Cc1cccc(Nc2ncnc3cc(OCCOC)c(OCCOC)cc23)c1 [Erlotinib] + C[C@@H](Oc1cc(-c2cnn(C3CCNCC3)c2)cnc1N)c1c(Cl)ccc(F)c1Cl [Crizotinib] (partner 1 µM)
Outline: as §1

[3] = compound: C#Cc1cccc(Nc2ncnc3cc(OCCOC)c(OCCOC)cc23)c1 [Erlotinib] + Cc1nc(Nc2ncc(C(=O)Nc3c(C)cccc3Cl)s2)cc(N2CCN(CCO)CC2)n1 [Dasatinib] (partner 0.075 µM)
Outline: as §1

[4] = compound: C#Cc1cccc(Nc2ncnc3cc(OCCOC)c(OCCOC)cc23)c1 [Erlotinib] + Nc1nc2[nH]cc(CCc3ccc(C(=O)N[C@@H](CCC(=O)O)C(=O)O)cc3)c2c(=O)[nH]1 [Pemetrexed] (partner 0.2 µM)
Outline: as §1

[5] = compound: O=C(Nc1c[nH]nc1-c1nc2ccc(CN3CCOCC3)cc2[nH]1)NC1CC1 [AT9283] + O=C(CCCCCCC(=O)Nc1ccccc1)NO [Vorinostat] (partner 1 µM)
Outline: as §1

Cell Line	relative viability ([1]; first compound 0.02 µM)	relative viability ([1]; first compound 0.2 µM)	relative viability ([1]; first compound 0.6325 µM)	relative viability ([1]; first compound 2 µM)	relative viability ([2]; first compound 0.02 µM)	relative viability ([2]; first compound 0.2 µM)	relative viability ([2]; first compound 0.6325 µM)	relative viability ([2]; first compound 2 µM)	relative viability ([3]; first compound 0.02 µM)	relative viability ([3]; first compound 0.2 µM)	relative viability ([3]; first compound 0.6325 µM)	relative viability ([3]; first compound 2 µM)	relative viability ([4]; first compound 0.02 µM)	relative viability ([4]; first compound 0.2 µM)	relative viability ([4]; first compound 0.6325 µM)	relative viability ([4]; first compound 2 µM)	relative viability ([5]; first compound 0.003 µM)	relative viability ([5]; first compound 0.03 µM)	relative viability ([5]; first compound 0.09487 µM)	relative viability ([5]; first compound 0.3 µM)
201T	1.12	1.06	1.12	1.02	1	0.943	0.905	0.951	0.646	0.548	0.543	0.541	0.339	0.336	0.348	0.32	0.844	0.653	0.471	0.304
A549	–	–	–	–	0.799	0.796	0.792	0.551	–	–	–	–	–	–	–	–	–	–	–	–
A-427	1.01	1.04	1.1	0.951	0.966	1.03	0.887	0.838	0.832	0.687	0.842	0.676	0.967	1.04	1.06	1.01	0.902	0.471	0.269	0.323
ABC-1	0.25	0.355	0.328	0.287	1.07	1.14	1.44	1.18	0.564	0.491	0.506	0.565	–	–	–	–	1.05	0.373	0.359	0.258
BEN	0.644	0.864	1.28	0.886	0.957	0.738	0.913	0.779	0.318	0.381	0.413	0.3	0.766	0.83	1.03	0.766	0.515	0.49	0.33	0.324
CAL-12T	0.879	0.73	0.713	0.487	0.964	0.636	0.356	0.249	0.632	0.307	0.266	0.15	1.43	1.15	0.929	0.662	0.804	0.394	0.237	0.166
COR-L23	1.12	1.15	1.23	0.839	0.718	0.681	0.666	0.614	0.552	0.554	0.457	0.452	0.205	0.178	0.195	0.19	0.443	0.119	0.0932	0.0899
COR-L 105	0.828	0.342	0.407	0.335	–	0.656	0.39	0.198	0.302	0.173	0.182	0.122	0.967	0.835	0.535	0.352	0.839	0.343	0.383	0.321
Calu-6	0.992	1.02	1.04	0.933	0.931	0.719	0.853	0.714	–	–	–	–	–	–	–	–	–	–	–	–
ChaGo-K-1	0.847	1.09	1.23	0.749	1.24	1.16	1.2	1.1	0.626	0.512	0.636	0.5	0.276	0.259	0.267	0.26	0.662	0.447	0.325	0.216
EBC-1	0.609	0.588	0.477	0.587	0.206	0.189	0.169	0.164	–	–	–	–	–	–	–	–	–	–	–	–
EKVX	1.13	0.513	0.323	0.17	1.04	0.457	0.287	0.147	0.544	0.242	0.321	0.223	0.411	0.283	0.286	0.19	0.673	0.545	0.302	0.287
EMC-BAC-2	1.09	0.972	1.05	–	0.806	0.68	0.83	0.63	0.33	0.314	0.337	0.342	0.466	0.425	0.432	0.421	0.28	0.19	0.159	0.146
EPLC-272H	–	0.875	0.989	0.828	0.911	0.957	0.884	0.596	0.461	0.217	0.358	0.279	0.385	0.329	0.29	0.371	0.467	0.167	0.206	0.139
H3255	0.99	0.758	0.244	0.179	0.999	0.509	0.305	0.136	0.322	0.347	0.167	0.278	0.528	0.387	0.383	0.233	0.818	0.907	0.733	0.298
HARA	1.2	1.01	0.959	0.867	1.04	0.983	0.79	0.505	0.28	0.265	0.253	0.151	0.259	0.21	0.186	0.222	0.365	0.453	0.122	0.0962
HCC-15	1.01	1.12	1.12	0.969	0.784	0.833	0.936	0.7	0.66	0.612	0.605	0.533	0.241	0.225	0.249	0.215	0.873	0.426	0.165	0.166
HCC-44	0.99	–	0.982	0.899	0.797	0.895	0.843	0.798	–	–	–	–	0.682	0.724	0.662	0.639	1.07	1.05	0.571	0.567
HCC-78	0.452	0.333	0.496	0.302	0.266	0.254	0.271	0.217	0.319	0.36	0.364	0.225	0.883	0.912	0.892	0.899	0.384	0.385	0.258	0.229
HCC-366	–	1.08	1.1	1.06	0.49	0.524	0.736	0.502	0.61	0.606	0.637	0.522	0.176	0.197	0.127	0.136	0.292	0.2	0.0353	0.0463
HCC-827	0.526	0.343	0.276	0.35	0.371	0.195	0.174	0.177	0.148	0.152	0.195	0.126	0.182	0.147	0.139	0.156	0.612	0.36	0.363	0.248

Cell Line	relative viability ([1]; first compound 0.02 µM)	relative viability ([1]; first compound 0.2 µM)	relative viability ([1]; first compound 0.6325 µM)	relative viability ([1]; first compound 2 µM)	relative viability ([2]; first compound 0.02 µM)	relative viability ([2]; first compound 0.2 µM)	relative viability ([2]; first compound 0.6325 µM)	relative viability ([2]; first compound 2 µM)	relative viability ([3]; first compound 0.02 µM)	relative viability ([3]; first compound 0.2 µM)	relative viability ([3]; first compound 0.6325 µM)	relative viability ([3]; first compound 2 µM)	relative viability ([4]; first compound 0.02 µM)	relative viability ([4]; first compound 0.2 µM)	relative viability ([4]; first compound 0.6325 µM)	relative viability ([4]; first compound 2 µM)	relative viability ([5]; first compound 0.003 µM)	relative viability ([5]; first compound 0.03 µM)	relative viability ([5]; first compound 0.09487 µM)	relative viability ([5]; first compound 0.3 µM)
HOP-62	1.08	0.5	0.316	1.02	0.885	0.989	0.965	0.972	0.695	0.583	–	0.567	0.285	0.332	0.255	0.312	0.637	0.262	0.183	0.186
IA-LM	0.833	–	0.977	0.86	0.808	1	0.93	0.85	–	–	–	–	–	–	–	–	0.927	0.624	0.144	0.111
LC-2-ad	1.02	1.02	–	0.868	0.468	0.509	0.458	0.329	0.724	0.466	0.589	0.452	0.307	0.279	0.274	0.262	0.696	0.251	0.199	0.157
LK-2	–	–	–	–	0.217	0.228	0.198	0.227	0.318	0.225	0.306	0.268	0.259	0.278	0.318	0.235	0.282	0.185	0.146	0.138
NCI-H358	–	–	–	–	0.549	0.524	0.379	0.24	0.174	0.129	0.133	0.171	0.176	0.156	0.147	0.164	0.54	0.119	0.0833	0.0819
NCI-H522	–	–	–	–	–	–	–	–	0.812	0.784	1.06	0.85	0.94	1.08	1.12	0.811	0.782	0.549	0.527	0.376
NCI-H727	0.785	0.844	1	0.701	0.736	0.725	0.574	0.552	0.308	–	0.295	0.322	–	–	–	–	1.07	0.866	0.815	0.499
NCI-H1299	1.11	1.05	0.997	1	0.989	–	0.988	0.965	–	–	–	–	–	–	–	–	–	–	–	–
NCI-H1395	–	–	–	–	–	–	–	–	0.405	0.442	0.411	0.408	0.807	0.959	0.868	0.794	0.579	0.494	0.337	0.299
NCI-H1563	0.905	0.787	0.75	0.754	0.85	0.845	0.802	0.804	0.38	0.522	0.427	0.382	0.659	0.83	0.92	–	–	–	–	–
NCI-H1623	–	–	–	–	–	–	–	–	0.562	0.517	0.315	0.366	–	–	–	–	–	–	–	–
NCI-H1648	–	–	–	–	–	–	–	–	–	–	–	–	0.759	0.707	0.629	0.66	0.378	0.468	0.325	0.308
NCI-H1703	0.296	0.346	0.409	0.238	0.592	–	–	0.569	–	–	–	–	–	–	–	–	–	–	–	–
NCI-H1792	0.897	0.958	1.18	0.783	1	0.931	1.06	0.801	0.875	0.655	0.981	0.608	1.05	0.629	1.02	0.51	–	–	–	–
NCI-H1793	–	–	–	–	–	–	–	–	0.342	0.249	0.392	0.272	1.01	0.441	0.825	0.52	0.709	0.349	0.278	0.281
NCI-H1944	–	–	–	–	0.964	0.701	0.844	0.626	0.213	0.219	0.237	0.21	0.586	0.506	0.536	0.358	0.532	0.274	0.214	0.205
NCI-H2170	–	–	–	–	1.17	1.06	1.1	0.569	0.554	0.548	0.434	0.272	0.275	0.261	0.242	0.237	0.765	0.514	0.272	0.13
NCI-H2342	–	–	–	–	–	–	–	–	0.289	0.323	0.304	0.26	0.707	0.822	0.715	0.583	0.804	0.576	0.59	0.409
SK-MES-1	–	–	–	–	1.06	0.725	0.524	0.38	0.338	0.175	0.177	0.156	1.07	0.519	0.545	0.418	1.19	1.03	0.304	0.154
SW 900	–	–	–	–	–	–	–	–	0.655	0.506	0.517	0.374	0.497	0.495	0.461	0.445	0.424	0.358	0.298	0.199
